# Laboratory results as given in patent publication US9067857B2, “Fluorine-containing aromatic compound and manufacturing method therefor” (Asahi Glass Company, Limited, priority 2012, dated 2015).
# Assay: Solubility test of compound in various solvents (20 mg in 10 g solvent, visually judged)
# Type: physicochemical
# Settings: 20 mg sample in 10 g solvent at room temperature (0.2% by mass)
# Procedure: <Solubility Test of Compound>
# In order to investigate applicability of the compound (e) obtained in the above Example 4 to a wet process, a solubility test of the compound in various solvents was conducted. In addition, a solubility test of anthracene was also conducted as Reference Example 2.
# Specifically, 20 mg of a sample was weighed and it was visually judged whether it dissolves in 10 g of a solvent at room temperature (0.2% by mass).
# In Table 3, “Yes” represents “soluble” and “No” represents “insoluble”.
smiles,measurement,value
"c1ccc2cc3ccccc3cc2c1 [Anthracene, anthracene]","Solubility in 1,2-Dichlorobenzene",Yes (“Yes” represents “soluble”)
same,Solubility in Chloroform,Yes (“Yes” represents “soluble”)
same,Solubility in Cyclohexane,No (“No” represents “insoluble”)
same,Solubility in Hexane,No (“No” represents “insoluble”)
"FC(F)(F)C(F)(F)C(F)(F)C(F)(F)C(F)(F)C(F)(F)c1c2ccccc2c(C(F)(F)C(F)(F)C(F)(F)C(F)(F)C(F)(F)C(F)(F)F)c2ccccc12 [Compound (e), 9,10-bis(perfluorohexyl)anthracene]","Solubility in 1,2-Dichlorobenzene",Yes (“Yes” represents “soluble”)
same,Solubility in Chloroform,Yes (“Yes” represents “soluble”)
same,Solubility in Cyclohexane,Yes (“Yes” represents “soluble”)
same,Solubility in Hexane,Yes (“Yes” represents “soluble”)
